From patent US20140128336A1, “MEDICAL PRODUCTS FOR USE IN CONDITIONS RELATED TO MICROBIAL INFECTIONS IN THE UPPER AERODIGESTIVE TRACT” (BIOHIT OYJ, priority 2011, published 2014)

Experiments:
[1] = test system: H. pylori strains (NCTC 11637, ATCC 43504); assay: Modified pellicle assay for H. pylori biofilm formation; format: cell-based, Helicobacter pylori
From the text: In this example, H. pylori strains (NCTC 11637, National Culture Collection, London, UK, and ATCC 43504, American Type Culture Collection), grown in liquid culture without shaking, were examined to determine their ability to form biofilms in the presence and absence of L-cysteine. The bacteria were screened for biofilm production using modified pellicle assay as previously described by Joshua et al. 2006 (14). The formation of pellicles at the liquid-gas interface of cultures grown without shaking was observed after 3-6 days. All isolates were grown in 13-by 125-mm glass test tubes containing 6 ml of BHI broth supplemented with 2% (w/v) β-cyclodextrin (BCD; Sigma) in the presence and absence of L-cysteine. The bacterial concentration was adjusted equivalently to approximately 0.5 McFarland standard (˜10^8 CFU/ml). The cultures were incubated under microaerobic conditions (N2 85%; O2 5%; CO2 10%) at 35° C. for 7 days without shaking. Development of pellicle and/or attached bacterial cells at interior surface of test tube at the air-liquid interface, representing as biofilm, was examined daily. In the tests using L-cysteine and N-acetyl-cysteine, increasing amounts of L-cysteine or N-acetyl-cysteine were added in increasing concentrations to the culture medium.

[2] = test system: H. pylori; assay: Open-label randomized trial, eradication of Helicobacter pylori; format: in vivo, human; conditions: patients with at least four eradication failures; 600 mg NAC once a day for seven days before culture-guided antibiotic regimen; standard group 4/20
Protocol: In this open-label randomized trial, 50% of patients with at least four H. pylori eradication failures received before culture-guided antibiotic regimen 600 mg of N-acetylcysteine (NAC) once a day for seven days. In the NAC-pretreatment group H. pylori were successfully eradicated in 13/20 and in standard group only in 4/20 patients (p<01).

[3] = test system: Cladosporium cladosporioides; conditions: cited from earlier work
[4] = test system: C. cladosporioides; conditions: block containing cysteine; cited from earlier work

N[C@@H](CS)C(=O)O [L-cysteine]
inhibition of H. pylori biofilm formation ([1]; 2 mg/ml in culture medium): partly
inhibition of H. pylori biofilm formation ([1]; 10 mg/ml in culture medium): completely
inhibition of H. pylori biofilm formation ([1]; 20 mg/ml in culture medium): completely

CC(=O)N[C@@H](CS)C(=O)O [N-acetylcysteine, reference compound]
H. pylori successfully eradicated [2]: 13/20
inhibition of H. pylori biofilm formation ([1]; 2 mg/ml in culture medium): partly
inhibition of H. pylori biofilm formation ([1]; 10 mg/ml in culture medium): completely
inhibition of H. pylori biofilm formation ([1]; 20 mg/ml in culture medium): completely

N[C@@H](CS)C(=O)O [cysteine]
production of ATP in C. cladosporioides [3]: inhibited
growth of Cladosporium cladosporioides ([3]; cultured with cysteine): completely and statically inhibited
biofilm of C. cladosporioides on surface of silicone block [4]: not covered with biofilm
